# Measurements from PubChem BioAssay AID493182 (Sanford-Burnham Center for Chemical Genomics, 2011).
# Molecular target: Ubiquitin-conjugating enzyme E2 N (Homo sapiens) (UniProt P61088)
# Experiment: concentration-dependent UBC13 chain formation blockade – biochemical, TR-FRET, reconfirmation, dose response (AID 493182)
# Conditions: UBC13 polyubiquitination
# Sequence of Ubiquitin-conjugating enzyme E2 N (Homo sapiens) (P61088 whole entry, looked up): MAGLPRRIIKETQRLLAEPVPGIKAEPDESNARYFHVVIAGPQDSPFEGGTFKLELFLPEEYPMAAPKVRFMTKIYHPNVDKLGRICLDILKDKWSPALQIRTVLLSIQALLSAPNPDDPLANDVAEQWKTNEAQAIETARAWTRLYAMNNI
row,SMILES,IC50 [µM]
1,CCC[C@@H](CN1CCC[C@H]1CN1C(N)=NC[C@H]1CC(C)C)N1C[C@@H](Cc2ccccc2)N(CCc2ccc(Cl)c(Cl)c2)C1=N,12.6
2,CCCCCCCCCCC[N+](C)(C)CC/C=C1/c2ccccc2Sc2ccc(Cl)cc21,4.77
3,C#CCOCCOCCOCCNc1nc(N2CCN(C(=O)CCCCCCCCCCNC(=O)[C@H](CCCCN)n3cc(CCO)nn3)CC2)nc(N2CCN(C(=O)CCCCCCCCCCNC(=O)[C@H](CCCCN)n3cc(CCO)nn3)CC2)n1,4.73
4,C#CCOCCOCCOCCNc1nc(N2CCN(C(=O)C([C@@H](C)O)n3cc([C@@H](N)CCCCN)nn3)CC2)nc(N2CCN(C(=O)[C@H](CCCCN)n3cc(CN)nn3)CC2)n1 (some centres not stated),3.71
5,N#Cc1ccc(OCC(=O)NNC(=S)NC(=O)C2CC2)cc1,6.43
6,O=C(CSc1nc2ccsc2c(=O)n1Cc1ccc(C(=O)O)cc1)NCC1CCCO1 (configuration not stated),17.3
7,Cc1ccc(N(C(=O)c2snc(C(N)=O)c2N)C(C(=O)NCC2CCCO2)c2c[nH]c3ccccc23)cc1 (configuration not stated),12.1
